# Literature values in patent publication US12357678B2, “Cancer stem cell targeted cancer vaccines” (priority 2012, dated 2025).
# Columns and labels:
# HLA-A2 = conditions: mutant vs wild type IL-13Rα2345-353
# T cells = conditions: mutant vs wild type IL-13Rα2345-353
# [1] = tested on: IL-13Ra2 positive, HLA-A2 positive glioma cells
substance,measurement,setting,value
"ALPFGFILV (Amino acid residues 345-353 of IL-13 Receptor alpha mutation of W to A at position 345 and I to V at position 353) [IL-13Rα2345-353:1A9V, IL-13Rα2 345-353 with mutation of W to A at position 345 and I to V at position 353]",affinity for HLA-A2 relative to wild type peptide,HLA-A2,increased the affinity for HLA-A2
same,T cell response (immunogenicity) relative to wild type peptide,T cells,more robust T cell response
same,"killing of glioma cells by T cells stimulated with the peptide, relative to wild type",[1]; T cells stimulated with mutant vs wild type peptide,more effective at killing glioma cells
"ELMLG EFLKL (ELMLGEFLKL; Amino acid residues 95-104 of Survivin with a methionine substitution at position 3) [SEQ ID NO:9, Survivin 95-104 with a methionine substitution at position 3]",activation of T cells cytotoxic to cancer cells,cancer cells,able to activate T cells that were cytotoxic to cancer cells
same,immunogenicity of survivin analog peptide,cancer cells,immunogenic
"WLPFGFILI (Amino acid residues 345-353 of IL-13 Receptor alpha; listed as Homo sapiens) [IL-13Rα2345-353, Amino acid residues 345-353 of Interleukin-13 Receptor alpha]",lysis of glioma cells by CTL lines generated by stimulation of CD8+ cells with the peptide,"[1]; IL-13Ra2 positive, HLA-A2 positive glioma cells, antigen-specific",efficiently lysed
